Measured values published in ChEMBL document CHEMBL1130305, “The design and synthesis of orally active short duration spiroindane growth hormone secretagogues” (Bioorg Med Chem Lett, 1997).

How the values were obtained:
Canis familiaris [1] = assay: Compound was evaluated for the lowest dose where fourfold elevations over basal GH levels were observed in Beagle dog model after intravenous dose of 0.025 mpk and 0.125 mpk oral dose; 1/2; assay type: functional, Canis lupus familiaris
Canis familiaris [2] = assay: Compound was evaluated for percentage of growth hormone of day1 response, after chronic oral dosing at 1.0 mpk on day 4; assay type: functional, Canis lupus familiaris
[3] = Compound was evaluated for its bioavailability in the rats; assay type: ADME, organism-based; conditions: rat, in vivo; read-out: Bioavailabiility
[4] = Compound was evaluated for its bioavailability in the dogs; assay type: ADME, organism-based, Canis lupus familiaris; conditions: dog, in vivo; read-out: Bioavailabiility
Canis familiaris [5] = species: Canis familiaris; assay: Compound was evaluated for the lowest dose where fourfold elevations over basal GH levels were observed in Beagle dog model after peroral dose of 0.25 mpk; 5/8; assay type: functional, Canis lupus familiaris
Canis familiaris [6] = assay: Compound was evaluated for percentage of increase in IGF-1 levels, after chronic oral dosing at 1.0 mpk on day 4; assay type: functional, Canis lupus familiaris
Canis familiaris [7] = assay: Compound was evaluated for percentage of increase in IGF-1 levels, after chronic oral dosing at 0.5 mpk on day 4; assay type: functional, Canis lupus familiaris
[8] = Compound was evaluated for its absorption in the rats; assay type: ADME, organism-based; conditions: rat, in vivo; read-out: Absorption
Canis familiaris [9] = assay: Compound was evaluated for percentage of growth hormone of day1 response, after chronic oral dosing at 0.5 mpk on day 4; assay type: functional, Canis lupus familiaris
[10] = half life was evaluated; assay type: ADME
Canis familiaris [11] = species: Canis familiaris; assay: Compound was evaluated for the lowest dose where fourfold elevations over basal GH levels were observed in Beagle dog model after peroral dose of 0.25 mpk; 1/1; assay type: functional, Canis lupus familiaris
Canis familiaris [12] = species: Canis familiaris; assay: Compound was evaluated for the lowest dose where fourfold elevations over basal GH levels were observed in Beagle dog model after peroral dose of 0.5 mpk; 1/2; assay type: functional, Canis lupus familiaris
Canis familiaris [13] = species: Canis familiaris; assay: Compound was evaluated for the lowest dose where fourfold elevations over basal GH levels were observed in Beagle dog model after peroral dose of 0.5 mpk; 4/4; assay type: functional, Canis lupus familiaris
Canis familiaris [14] = species: Canis familiaris; assay: Compound was evaluated for the lowest dose where fourfold elevations over basal GH levels were observed in Beagle dog model after peroral dose of 0.25 mpk; 2/5; assay type: functional, Canis lupus familiaris
Canis familiaris [15] = species: Canis familiaris; assay: Compound was evaluated for the lowest dose where fourfold elevations over basal GH levels were observed in Beagle dog model after peroral dose of 0.25 mpk; 8/8; assay type: functional, Canis lupus familiaris
Canis familiaris [16] = assay: Compound was evaluated for the lowest dose where fourfold elevations over basal GH levels were observed in Beagle dog model after intravenous dose of 0.025 mpk and 0.125 mpk oral dose; 6/8; assay type: functional, Canis lupus familiaris
Canis familiaris [17] = species: Canis familiaris; assay: Compound was evaluated for the lowest dose where fourfold elevations over basal GH levels were observed in Beagle dog model after peroral dose of 0.5 mpk; 2/2; assay type: functional, Canis lupus familiaris

Compound `CCOC(=O)[C@H]1CC2(CCN(C(=O)[C@@H](CCCc3ccccc3)NC(=O)C(C)(C)N)CC2)c2ccccc21.Cl` has a Responders (Canis familiaris [1]) of 1, a GH (Canis familiaris [2]) of 80% and a bioavailability [3] of 4.5%. The bioavailability [4] was 11.8%, the Responders (Canis familiaris [5]) was 5 and the Increase (Canis familiaris [6]) was 45%. For the same compound, the Increase (Canis familiaris [7]) was 65%, the Fa [8] was > 50% and the GH (Canis familiaris [9]) was 65%.
Work on `CC(C)(N)C(=O)N[C@H](CCCc1ccccc1)C(=O)N1CCC2(CC1)C[C@H](C(=O)O)c1ccccc12.Cl` yielded a half-life [10] of 1.7 h, a Responders (Canis familiaris [11]) of 1 and a Responders (Canis familiaris [12]) of 1.
Compound `CCOC(=O)C[C@@H]1CC2(CCN(C(=O)[C@@H](CCCc3ccccc3)NC(=O)C(C)(C)N)CC2)c2ccccc21.Cl` has a Responders (Canis familiaris [13]) of 4 and a Responders (Canis familiaris [14]) of 2.
For `CC(C)(N)C(=O)N[C@H](COCc1ccccc1)C(=O)N1CCC2(CC1)CN(S(C)(=O)=O)c1ccccc12.Cl`, the half-life [10] was 4.8 h, the Responders (Canis familiaris [15]) was 8 and the Responders (Canis familiaris [16]) was 6.
With `CC(C)(N)C(=O)N[C@H](CCCc1ccccc1)C(=O)N1CCC2(CC1)C[C@@H](CC(=O)O)c1ccccc12.Cl` the Responders (Canis familiaris [17]) was 2.
